The text below walks through data of patent US6608086B2, “Dihydropyridines and new uses thereof” (Synaptic Pharmaceutical Corporation, priority 1993, dated 2003).

In one data set the target is T1, α2B receptor (Homo sapiens, UniProt P18089).
T1 construct: host or cells: LM(tk-) cells, line L-NGC-α2B
T1 sequence (P18089 1-450): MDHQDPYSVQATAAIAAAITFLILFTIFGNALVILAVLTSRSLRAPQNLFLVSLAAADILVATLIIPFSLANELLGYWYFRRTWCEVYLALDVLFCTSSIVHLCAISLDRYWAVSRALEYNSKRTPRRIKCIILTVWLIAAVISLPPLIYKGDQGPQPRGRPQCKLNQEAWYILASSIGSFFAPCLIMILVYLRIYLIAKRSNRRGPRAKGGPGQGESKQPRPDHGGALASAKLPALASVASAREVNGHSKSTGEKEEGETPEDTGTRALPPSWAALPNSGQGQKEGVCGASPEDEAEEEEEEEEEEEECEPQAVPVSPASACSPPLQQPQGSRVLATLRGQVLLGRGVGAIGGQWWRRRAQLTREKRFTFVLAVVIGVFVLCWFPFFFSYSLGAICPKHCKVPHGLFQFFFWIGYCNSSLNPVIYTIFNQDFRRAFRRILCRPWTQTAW
Kind of data set: Competition binding, [3H]rauwolscine, human α2B receptor. In outline:
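Equilibrium displacement of [3H]rauwolscine (0.5 nM) measured on membranes from stably transfected LM(tk−) lines, one per α2 subtype, in glycylglycine buffer at pH 7.6. Nonspecific binding set by 10 μM phentolamine; separation by filtration.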

Setting [1] is: pKi alpha-2 2b, [3H]rauwolscine, human α2B receptor, LM(tk−) cells.
Where [2] appears, read: pKi alpha-2 2b, [3H]rauwolscine, LM(tk-) cell line L-NGC-α2B, SEM and n in lines below.
Setting [3] is: [3H]rauwolscine, LM(tk-) cell line L-NGC-α2B, SEM and n in lines below, read-out: pKi alpha-2 2b (converted).

Like-named read-outs stand apart in the source and are kept apart here.

Compound `CCNC(=O)C1=C(COCCN=[N+]=[N-])NC(CC)=C(C(=O)NCCCN2CCC(c3ccccc3)(c3ccccc3)CC2)C1c1ccc([N+](=O)[O-])cc1` (centres unmarked) [Example 147, 2-((2-Azidoethyl)oxy)methyl-6-ethyl-3-(N-ethyl)carboxamido-1,4-dihydro-4-(4-nitro)phenyl-5-(N-(3-(4,4-diphenylpiperidin-1-yl-)propyl))carboxamidopyridine] had a melting point of 83 to 87 °C. The compound further showed a Ki on α2B receptor (setting [1]) of 1100 nM.

In turn, `COC(=O)C1=C(C)NC(C)=C(C(=O)NCCCN2CCC(c3ccccc3)(c3ccccc3)CC2)C1c1ccoc1` (centres unmarked) [Example 23, 4-(3-Furyl)-1,4-dihydro-3-methoxycarbonyl-2,6-dimethyl-5-(N-(3-(4,4-diphenylpiperidin-1-yl)propyl)carboxamide)pyridine] gave a melting point of 225 to 226 °C. The compound also had a Ki at α2B receptor (setting [2]) of 562 nM.

`CCC1=C(C(=O)NCCCN2CCC(c3ccccc3)(c3ccccc3)CC2)C(c2cccc(OC)c2)C(C(N)=O)=C(C)N1` (centres unmarked) [Example 113, 5-Carboxamide-2-ethyl-1,4-dihydro-4-(3-methoxyphenyl)-6-methyl-3-(N-(3-(4,4-diphenylpiperidin-1-yl)propyl)carboxamido)-pyridine] returned a melting point of 120 to 123 °C. On α2B receptor (setting [1]), the Ki was 166 nM.

Turning to `CCC1=C(C(=O)NCCCN2CCC(c3ccccc3)(c3ccccc3)CC2)C(c2cccc(OC)c2)C(C(=O)NCCCN2CCC(c3ccccc3)(c3ccccc3)CC2)=C(CC)N1` [Example 112, 2,6-Diethyl-1,4-dihydro-4-(3-methoxyphenyl)-3,5-bis(N-(3-(4,4-diphenylpiperidin-1-yl)propyl)carboxamido)-pyridine], the melting point fell in the range of 166 to 170 °C. Moreover, the Ki at α2B receptor (setting [1]) is 447 nM.

Take `COC(=O)C1=C(C)NC(C)=C(C(=O)NCCCN2CCC(c3ccccc3)(c3ccccc3)CC2)C1Cc1ccccc1` (centres unmarked) [Example 8, 4-Benzyl-1,4-dihydro-3-methoxycarbonyl-2,6-dimethyl-5-(N-(3-(4,4-diphenylpiperidin-1-yl)propyl)carboxamido)pyridine]: the melting point is 175 to 177 °C. The compound also showed a Ki on α2B receptor (setting [2]) of 1860 nM.

As to `CCC1=C(C(=O)OCCC#N)C(c2ccc([N+](=O)[O-])cc2)C(C(=O)NCCCN2CCC(c3ccccc3)(c3ccccc3)CC2)=C(COCCN=[N+]=[N-])N1` (centres unmarked) [Example 141], the melting point was 63 to 67 °C. Further, the Ki at α2B receptor (setting [1]) is 437 nM.

Compound `CC1=C(C(=O)NCCCN2CCC(c3ccccc3)(c3ccccc3)CC2)C(c2ccc([N+](=O)[O-])cc2)c2c([nH]c(=O)[nH]c2=O)N1` (centres unmarked) [Example 64] returned a melting point of 184 to 186 °C. For the same compound, the Ki at α2B receptor (setting [2]) is 437 nM.

The compound `CC1=C(C(N)=O)C(c2ccc(S(C)(=O)=O)cc2)C(C(=O)NCCCN2CCC(c3ccccc3)(c3ccccc3)CC2)=C(C)N1` (centres unmarked) [Example 115, 5-Carboxamido-1,4-4-dihydro-4-(4-methanesufonylphenyl)-2,6-dimethyl-3-(N-(3-(4,4-diphenylpiperidin-1-yl)propyl)carboxamido)-pyridine] registered a melting point of 206 to 209 °C. This compound also had a Ki on α2B receptor (setting [1]) of 776 nM.

For the compound `CC1=C(C(N)=O)C(c2cccc([N+](=O)[O-])c2)C(C(=O)NCCCN2CCC(c3ccccc3)(c3ccccc3)CC2)=C(C)N1` (centres unmarked) [Example 61, 5-Carboxamido-1,4-dihydro-2,6-dimethyl-4-(3-nitrophenyl)-3-{N-[3-(4,4-diphenylpiperidin-1-yl)propyl]}carboxamidopyridine], the melting point is 144 to 148 °C. Moreover, the Ki on α2B receptor (setting [3]) was 603 nM.

As to `COC(=O)C1=C(C)NC(C)=C(C(=O)NCCCN2CCC(c3ccccc3)(c3ccccc3)CC2)C1c1ccc(Br)cc1` (centres unmarked) [Example 15, 4-(4-Bromophenyl)-1,4-dihydro-3-methoxycarbonyl-2,6-dimethyl-5-(N-(3-(4,4-diphenylpiperidin-1-yl)propyl)carboxamido)pyridine], the melting point was 244 to 247 °C (dec.). The compound further showed a Ki at α2B receptor (pKi alpha-2 2b) of 3390 nM.

`COc1cccc(C2C(C(N)=O)=C(C)NC(C)=C2C(=O)NCCCN2CCC(c3ccccc3)(c3ccccc3)CC2)c1` (centres unmarked) [Example 117, 5-Carboxamido-1,4-dihydro-4-(3-Methoxyphenyl)-2,6-dimethyl-3-(N-(3-(4,4-diphenylpiperidin-1-yl)propyl)carboxamido)-pyridine] returned a melting point of 212 to 213 °C. Also, the Ki on α2B receptor (setting [1]) was 437 nM.

With `COC(=O)C1=C(C)NC(C)=C(C(=O)NCCCN2CCC(c3ccccc3)(c3ccccc3)CC2)C1c1ccc(C(C)C)cc1` (centres unmarked) [Example 18, 1,4-Dihydro-4-(4-isopropylphenyl)-3-methoxycarbonyl-2,6-dimethyl-5-(N-(3-(4,4-diphenylpiperidin-1-yl)propyl)carboxamido)pyridine], the melting point lay within 163 to 163.5 °C. Besides, at α2B receptor (pKi alpha-2 2b), the Ki was 1620 nM.

`COC(=O)C1=C(C)NC(C)=C(C(=O)NCCCN2CCC(c3ccccc3)(c3ccccc3)CC2)C1c1ccc(C)cc1` (centres unmarked) [Example 19, 1,4-Dihydro-3-methoxycarbonyl-1,6-dimethyl-4-(4-methylphenyl)-5-(N-(3-(4,4-diphenylpiperidin-1-yl)propyl)carboxamido)pyridine]: the melting point fell in the range of 234 to 235 °C. Also, the Ki on α2B receptor (pKi alpha-2 2b) was 912 nM.

`CCC1=C(C(N)=O)C(c2ccc(S(C)(=O)=O)cc2)C(C(=O)NCCCN2CCC(c3ccccc3)(c3ccccc3)CC2)=C(C)N1` (centres unmarked) [Example 118, 3-Carboxamido-2-ethyl-1,4-dihydro-4-(4-methanesulfonylphenyl)-6-methyl-3-(N-(3-(4,4-diphenylpiperidin-1-yl)propyl)carboxyamido)-pyridine] showed a melting point of 182 to 183 °C. The compound also showed a Ki on α2B receptor (setting [1]) of 1450 nM.

As to `COC(=O)C1=C(C)NC(C)=C(C(=O)NCCCN2CCC(c3ccccc3)(c3ccccc3)CC2)C1c1ccc(OC)cc1` (centres unmarked) [Example 21, 1,4-Dihydro-3-methoxycarbonyl-4-(4-Methoxyphenyl)-2,6-dimethyl-5-(N-(3-(4,4-diphenylpiperidin-1-yl)propyl)carboxamido)pyridine], the melting point fell in the range of 212 to 213 °C. For the same compound, the Ki at α2B receptor (pKi alpha-2 2b) is 1070 nM.

As to `COC(=O)C1=C(C)NC(C)=C(C(=O)NCCCN2CCC(c3ccccc3)(c3ccccc3)CC2)C1c1ccc([N+](=O)[O-])c(OC)c1` (centres unmarked) [Example 29, 1,4-Dihydro-3-methoxycarbonyl-4-(3-methoxy-4-nitrophenyl)-2,6-dimethyl-5-(N-(3-(4,4-diphenylpiperidin-1-yl)propyl)carboxamido)pyridine], the melting point lay within 211 to 213 °C. Moreover, the Ki at α2B receptor (setting [3]) was 631 nM.

As to `COC(=O)C1=C(C)NC(C)=C(C(=O)NCCCN2CCC(c3ccccc3)(c3ccccc3)CC2)C1c1cccnc1` (centres unmarked) [Example 14, 1,4-Dihydro-3-methoxycarbonyl-2.6-dimethyl-5-(N-(3-(4,4-diphenylpiperidin-1-yl)propyl)carboxamido)-4-(3-pyridyl)pyridine], the melting point was 244 to 247 °C (dec.). Moreover, the Ki on α2B receptor (setting [2]) is 1350 nM.

In the case of `COC(=O)C1=C(C)NC(C)=C(C(=O)NCCCN2CCC(c3ccccc3)(c3ccccc3)CC2)C1c1ccc(-c2ccccc2)cc1` (centres unmarked) [Example 7], the melting point is 136 to 139 °C. The Ki on α2B receptor (pKi alpha-2 2b) was 1620 nM.

As for `COC(=O)C1=C(C)NC(C)=C(C(=O)NCCCN2CCC(c3ccccc3)(c3ccccc3)CC2)C1c1ccc(C(F)(F)F)cc1` (centres unmarked) [Example 1], the melting point was in the range of 228 to 231 °C. For the same compound, the Ki at α2B receptor (pKi alpha-2 2b) was 3310 nM.
